From patent US20240279233A1, “MACROCYCLIC TAK1 INHIBITORS” (Aqilion AB, priority 2021, published 2024)
Like-named read-outs stand apart in the source and are kept apart here.

Target: human recombinant TAK1-TAB1 Kinase (TAK1 (1-303) and TAB1 (437-end)) (Homo sapiens (Human), UniProt O43318)
Assay: TAK1 biochemical ADP-Glo kinase assay
Conditions: MBP substrate
Experimental: The usefulness of the example compounds of the invention as TAK1 inhibitors was evaluated in a biochemical ADP-Glo kinase assay. Assay kits from Promega Corporation V4089 were used according to manufacturer's instructions and adapted as outlined here. ADP-Glo Kinase Assay kit contains ADP-Glo Reagent, Kinase Detection Reagent, kinase detection buffer, ATP, and ADP. The Kinase Enzyme Systems include human recombinant TAK1-TAB1 Kinase (TAK1 (1-303) and TAB1 (437-end)), Native Swine Myelin Basic Protein (MBP) substrate, 5×kinase reaction buffer, and DTT.
Test compounds were prepared in 1:5 serial dilutions at 8 concentrations in DMSO from 10 mM stock solutions. An additional 20-fold dilution in 1× kinase reaction buffer (see below) was performed, yielding a final dilution series in kinase buffer with 5% DMSO (final concentration in assay from 20 μM to 0.26 nM, 1% DMSO). As controls, Takinib was prepared as positive control (3 μM final in assay), and DMSO without inhibitor served as negative control, at a final assay concentration of DMSO of 1%.
One μl of compound solution in 5% DMSO was added to each well in a 384 well microtiter plate (OptiPlate #6007290). Two μl TAK1-TAB1 (7.5 ng/μl) in lxkinase reaction buffer ([…] Tris base pH 7.5, 20 mM MgCl2, 50 μM DTT, 0.1 mg/ml BSA) was added and pre-incubated 10 min before adding 2 μl of a mixture of MBP substrate and ATP (0.25 μg/μL MBP/25 μM ATP or 0.25 μg/μL MBP/2.5 mM ATP) in 1× kinase reaction buffer (as above). The plate was subsequently incubated at room temperature for 1 hour. Then 5 μl ADP-Glo™ reagent from ADP-Glo™ kit (as above) was added and incubated for 40 min to stop the reaction and consume remaining ATP. Ten μl kinase detection substrate (dissolved in kinase detection buffer, both from ADP-Glo™ kit as above) was then added to convert ADP to ATP and detect ATP with luciferase/luciferin. The plate was incubated for 30 minutes at room temperature in dark before reading luminescence on an Envision (PerkinElmer) reader.
IC50 values of compounds of the invention were determined by the non-linear regression analysis of dose response curves.

[1] = 1 mM ATP, read-out: TAK1 Mean IC50 (nM) @ 1 mM ATP
[2] = 10 μM ATP, read-out: TAK1 Mean IC50 (nM) @ 10 μM ATP

Chain of human recombinant TAK1-TAB1 Kinase (TAK1 (1-303) and TAB1 (437-end)) (O43318 other isoform, or with tags, fused parts or gaps): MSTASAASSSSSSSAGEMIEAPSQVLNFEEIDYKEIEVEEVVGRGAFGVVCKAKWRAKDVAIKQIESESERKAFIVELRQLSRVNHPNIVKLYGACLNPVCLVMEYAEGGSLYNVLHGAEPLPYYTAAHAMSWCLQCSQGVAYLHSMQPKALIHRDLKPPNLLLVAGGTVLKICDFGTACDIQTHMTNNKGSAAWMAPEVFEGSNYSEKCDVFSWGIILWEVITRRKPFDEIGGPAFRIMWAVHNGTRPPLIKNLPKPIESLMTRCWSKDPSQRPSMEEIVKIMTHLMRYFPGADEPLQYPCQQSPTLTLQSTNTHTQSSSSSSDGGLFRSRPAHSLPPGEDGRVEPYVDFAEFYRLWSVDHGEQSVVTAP

| Structure (SMILES) | IC50 [1] | IC50 [2] |
| --- | --- | --- |
| CC1CCCCNC(=O)c2nc(cs2)C(=O)/N=C2\Nc3cccc(C(=O)N(C)C)c3N21 (single isomer, unassigned) [Example 108, (1^2Z,4^2E)-N,N,5-trimethyl-2,11-dioxo-4^2,4^3-dihydro-4^1H-3,10-diaza-1(4,2)-thiazola-4(2,1)-benzo[d]imidazolacycloundecaphane-4^7-carboxamide] | 23 nM | – |
| CC1CCCCNC(=O)c2nc(cs2)C(=O)/N=C2\Nc3cccc(C(=O)N(C)C)c3N21 (single isomer, unassigned) [Example 109, (1^2Z,4^2E)-N,N,5-trimethyl-2,11-dioxo-4^2,4^3-dihydro-4^1H-3,10-diaza-1(4,2)-thiazola-4(2,1)-benzo[d]imidazolacycloundecaphane-4^7-carboxamide] | 114 nM | – |
| C[C@H]1CCCCNC(=O)c2cccc(c2)C(=O)/N=C2\Nc3cccc(C(=O)N4CCC5(CCO5)C4)c3N21 (single isomer, unassigned) [Example 120] | 14 nM | 5 nM |
| C[C@H]1CCCCNC(=O)c2cccc(c2)C(=O)/N=C2\Nc3cccc(C(=O)N4CCC5(CCO5)C4)c3N21 (single isomer, unassigned) [Example 121] | 19 nM | 5 nM |
| C[C@H]1CCCCNC(=O)c2cccc(c2)C(=O)/N=C2\Nc3ccnc(N4CCC(F)C4=O)c3N21 (single isomer, unassigned) [Example 126] | 12 nM | 4 nM |
| C[C@H]1CCCCNC(=O)c2cccc(c2)C(=O)/N=C2\Nc3ccnc(N4CCC(F)C4=O)c3N21 (single isomer, unassigned) [Example 127] | 18 nM | 5 nM |
| Cc1nnc(-c2cccc3c2N2/C(=N/C(=O)c4cccc(c4)C(=O)NCCCCC2C)N3)o1 (single isomer, unassigned) [Example 132, (E)-11-methyl-1^7-(5-methyl-1,3,4-oxadiazol-2-yl)-1^2,1^3-dihydro-1^1H-2,6-diaza-1(2,1)-benzo[d]imidazola-4(1,3)-benzenacycloundecaphane-3,5-dione] | 10 nM | 10 nM |
| Cc1nnc(-c2cccc3c2N2/C(=N/C(=O)c4cccc(c4)C(=O)NCCCCC2C)N3)o1 (single isomer, unassigned) [Example 133, (E)-11-methyl-1^7-(5-methyl-1,3,4-oxadiazol-2-yl)-1^2,1^3-dihydro-1^1H-2,6-diaza-1(2,1)-benzo[d]imidazola-4(1,3)-benzenacycloundecaphane-3,5-dione] | 12 nM | 10 nM |
| CC1CCCCNC(=O)c2cccc(c2)C(=O)/N=C2\Nc3cccc(-c4nccn4C)c3N21 (single isomer, unassigned) [Example 135, (E)-11-methyl-1^7-(1-methyl-1H-imidazol-2-yl)-1^2,1^3-dihydro-1^1H-2,6-diaza-1(2,1)-benzo[d]imidazola-4(1,3)-benzenacycloundecaphane-3,5-dione] | – | 6 nM |
| CC1CCCCNC(=O)c2cccc(c2)C(=O)/N=C2\Nc3cccc(-c4ncn(C(F)F)n4)c3N21 (single isomer, unassigned) [Example 137, (E)-1^7-(1-(difluoromethyl)-1H-1,2,4-triazol-3-yl)-11-methyl-1^2,1^3-dihydro-1^1H-2,6-diaza-1(2,1)-benzo[d]imidazola-4(1,3)-benzenacycloundecaphane-3,5-dione] | – | 9 nM |
| CC1CCCCNC(=O)c2cccc(c2)C(=O)/N=C2\Nc3cccc(-c4ncn(C(F)F)n4)c3N21 (single isomer, unassigned) [Example 138, (E)-1^7-(1-(difluoromethyl)-1H-1,2,4-triazol-3-yl)-11-methyl-1^2,1^3-dihydro-1^1H-2,6-diaza-1(2,1)-benzo[d]imidazola-4(1,3)-benzenacycloundecaphane-3,5-dione] | – | 8 nM |
| CC1CCCCNC(=O)c2cccc(c2)C(=O)/N=C2\Nc3cccc(-c4ncnn4C(F)F)c3N21 (single isomer, unassigned) [Example 139, (E)-1^7-(1-(difluoromethyl)-1H-1,2,4-triazol-5-yl)-11-methyl-1^2,1^3-dihydro-1^1H-2,6-diaza-1(2,1)-benzo[d]imidazola-4(1,3)-benzenacycloundecaphane-3,5-dione] | 17 nM | – |
| CC1CCCCNC(=O)c2cccc(c2)C(=O)/N=C2\Nc3cccc(-c4ncnn4C(F)F)c3N21 (single isomer, unassigned) [Example 140, (E)-1^7-(1-(difluoromethyl)-1H-1,2,4-triazol-5-yl)-11-methyl-1^2,1^3-dihydro-1^1H-2,6-diaza-1(2,1)-benzo[d]imidazola-4(1,3)-benzenacycloundecaphane-3,5-dione] | 6 nM | – |
| CC1CCCCNC(=O)c2cccc(c2)C(=O)/N=C2\Nc3cccc(N4CCN(C5CC5)C4=O)c3N21 (single isomer, unassigned) [Example 141, (E)-1^7-(3-cyclopropyl-2-oxoimidazolidin-1-yl)-11-methyl-1^2,1^3-dihydro-1H-2,6-diaza-1(2,1)-benzo[d]imidazola-4(1,3)-benzenacycloundecaphane-3,5-dione] | 15 nM | – |
| CC1CCCCNC(=O)c2cccc(c2)C(=O)/N=C2\Nc3cccc(N4CCN(C5CC5)C4=O)c3N21 (single isomer, unassigned) [Example 142, (E)-1^7-(3-cyclopropyl-2-oxoimidazolidin-1-yl)-11-methyl-1^2,1^3-dihydro-1H-2,6-diaza-1(2,1)-benzo[d]imidazola-4(1,3)-benzenacycloundecaphane-3,5-dione] | 8 nM | 7 nM |
| CC1CCCCNC(=O)c2cccc(c2)C(=O)/N=C2\Nc3cccc(N4CCN(C5COC5)C4=O)c3N21 (single isomer, unassigned) [Example 143, (E)-11-methyl-1^7-(3-(oxetan-3-yl)-2-oxoimidazolidin-1-yl)-1^2,1^3-dihydro-1^1H-2,6-diaza-1(2,1)-benzo[d]imidazola-4(1,3)-benzenacycloundecaphane-3,5-dione] | 14 nM | – |
| CC1CCCCNC(=O)c2cccc(c2)C(=O)/N=C2\Nc3cccc(N4CCN(C5COC5)C4=O)c3N21 (single isomer, unassigned) [Example 144, (E)-11-methyl-1^7-(3-(oxetan-3-yl)-2-oxoimidazolidin-1-yl)-1^2,1^3-dihydro-1^1H-2,6-diaza-1(2,1)-benzo[d]imidazola-4(1,3)-benzenacycloundecaphane-3,5-dione] | 10 nM | – |
| CNC(=O)c1cccc2nc3n(c12)C(C)CCCCNC(=O)c1cccc(c1)C(=O)N3 (stereo not drawn) [Example 34, (E)-N,11-dimethyl-3,5-dioxo-1^2,1^3-dihydro-1^1H-2,6-diaza-1(2,1)-benzo[d]imidazola-4(1,3)-benzenacycloundecaphane-1^7-carboxamide] | – | 2 nM |
| CC1CCCCNC(=O)c2cccc(c2)C(=O)/N=C2\Nc3cccc(C(=O)N4CCC(F)(F)C4)c3N21 (stereo not drawn) [Example 37, (E)-1^7-(3,3-difluoropyrrolidine-1-carbonyl)-11-methyl-1^2,1^3-dihydro-1^1H-2,6-diaza-1(2,1)-benzo[d]imidazola-4(1,3)-benzenacycloundecaphane-3,5-dione] | – | 5 nM |
| COC(=O)CN(C)C(=O)c1cccc2c1N1/C(=N/C(=O)c3cccc(c3)C(=O)NCCCCC1C)N2 (stereo not drawn) [Example 38, methyl (E)-N-methyl-N-(11-methyl-3,5-dioxo-1^2,1^3-dihydro-1^1H-2,6-diaza-1(2,1)-benzo[d]imidazola-4(1,3)-benzenacycloundecaphane-1^7-carbonyl)glycinate] | – | 4 nM |
| CC1CCCCNC(=O)c2cccc(c2)C(=O)/N=C2\Nc3cccc(C(=O)N(C)C4CCC4)c3N21 (stereo not drawn) [Example 39, (E)-N-cyclobutyl-N,11-dimethyl-3,5-dioxo-1^2,1^3-dihydro-1^1H-2,6-diaza-1(2,1)-benzo[d]imidazola-4(1,3)-benzenacycloundecaphane-1^7-carboxamide] | – | 6 nM |
| CC1CCCCNC(=O)c2cccc(c2)C(=O)/N=C2\Nc3cccc(C(=O)N4CC(F)(F)C4)c3N21 (stereo not drawn) [Example 40, (E)-1^7-(3,3-difluoroazetidine-1-carbonyl)-11-methyl-1^2,1^3-dihydro-1^1H-2,6-diaza-1(2,1)-benzo[d]imidazola-4(1,3)-benzenacycloundecaphane-3,5-dione] | – | 3 nM |
| CC1CCCCNC(=O)c2cccc(c2)C(=O)/N=C2\Nc3cccc(C(=O)N(C)C4CC(O)C4)c3N21 (stereo not drawn) [Example 41, (E)-N-(3-hydroxycyclobutyl)-N,11-dimethyl-3,5-dioxo-1^2,1^3-dihydro-1^1H-2,6-diaza-1(2,1)-benzo[d]imidazola-4(1,3)-benzenacycloundecaphane-1^7-carboxamide] | – | 3 nM |
